Measurements published in publication PMC3799725, “Detection of Active Matriptase Using a Biotinylated Chloromethyl Ketone Peptide” (PLoS ONE, 2013).
Where no end group is shown, it is not given here. The star is where a group is joined. Biotin = O=C1N[C@H]2[C@H](CS[C@H]2CCCCC(=O)*)N1

Key:
[1] = system: murine matriptase (primary keratinocytes); conditions: representative of 2 independent experiments; for labeling of matriptase in matriptase-deficient (KO) murine keratinocytes: lysates or pull downs (figure 6 lanes 4-6 and 10-12)
[2] = system: matriptase SPD; assay: Chromogenic assay: inhibition of matriptase SPD cleavage of S2288; conditions: representative of 3 independent experiments
[3] = system: matriptase-HAI-1 complex; assay: Reaction with / effect on matriptase-HAI-1 complex in Caco-2 cells (pH 6.0-induced)

Row | Compound | labeling of matriptase in matriptase-deficient (KO) murine keratinocytes [1] | inhibition of peptidolytic activity of matriptase SPD after pre-incubation of inhibitor ([2]; 5 nM inhibitor pre-incubated 60 min at 37°C, 0.2 nM SPD, Hepes pH 7.4, S2288 300 µM, 405 nm) | inhibition of peptidolytic activity of matriptase SPD ([2]; 5 nM inhibitor, no pre-incubation (0 min), 0.2 nM SPD, Hepes pH 7.4, 10 min at 37°C, S2288 300 µM, 405 nm) | inhibition of matriptase SPD after pre-incubation of inhibitor ([2]; 50 µM inhibitor pre-incubated in aqueous solution 180 min at 37°C, 0.2 nM SPD, Hepes pH 7.4, 10 min at 37°C, S2288 300 µM, 405 nm) | inhibition of matriptase SPD cleavage of chromogenic substrate at pH 6.0 ([2]; 50 µM inhibitor, 20 mM citric acid pH 6.0, 140 mM NaCl, 0.1% BSA, 10 min at 37°C, S2288 300 µM) | labeling of matriptase after pH 6.0 pre-treatment (matriptase-HAI-1 complex formed) ([3]; 50 µM, 30 min at 37°C at pH 7.4 after 30 min pre-treatment at pH 6.0 (figure 4 lane 9)) | labeling of matriptase-HAI-1 complex ([3]; Caco-2, 50 µM, 30 min at 37°C, conclusion from pH 6.0 pre-treatment) | dissociation of matriptase-HAI-1 complex ([3]; under the conditions used in the study) | labeling of matriptase on WT murine keratinocytes by control peptide ([1]; 50 µM control peptide, WT keratinocytes (figure 6 lane 3))
1 | biotin-Arg-Gln-Arg-Arg-chloromethyl ketone | No matriptase could be detected in lysates or pull downs | fully inhibiting the peptidolytic activity | fully inhibiting the peptidolytic activity | still sufficient to efficiently inhibit the activity | no cleavage of the substrate was observed | but not when the cells had been exposed to pH 6.0 for 30 min | matriptase-HAI-1 complex is not labeled | not able to dissociate the matriptase-HAI-1 complex | –
2 | O=C(CCCC[C@@H]1SC[C@@H]2NC(=O)N[C@@H]21)NCCSSCCC(=O)ON1C(=O)CC(S(=O)(=O)[O-])C1=O.[Na+] (some centres unmarked) [S-NHS-SS-biotin] | No matriptase could be detected in lysates or pull downs | – | – | – | – | – | – | – | –
3 | Biotin-RQRR [biotin-RQRR] | No matriptase could be detected in lysates or pull downs | – | – | – | – | – | – | – | No matriptase was detected
